In patent US7709454B2, “Methods and compositions for inhibiting tumorigenesis” (New York University, priority 1997, dated 2010):

Assays:
[1] = system: Various human tumor cell lines; conditions: cited from earlier work
[2] = system: human melanoma primary cultures and cell lines; experiment: BrdU incorporation in melanoma primary cultures and cell lines; type: cell-based; conditions: 48 h; all four melanoma cell lines tested and Me-3
Method: Human foreskin melanocytes (Promocell) were grown in serum-free M2 medium (Promocell). WM-115, SK-MEL-2, SK-MEL-5, MeWo and COS7 cell lines (ATCC) were grown as specified. Tumors were chopped, incubated in E-MEM (Sigma) containing collagenase A (300 U/ml, Worthington) and hyaluronidase (100 U/ml, Sigma), mechanically dissociated and plated in E-MEM with 10% FBS, 1 mM sodium pyruvate (GIBCO) and 1 ng/ml EGF (GIBCO). […] All melanoma samples and BCC were obtained following approved protocols.
(§1) Commercial N-SHH (R&D Systems) was used at 100 nM. 5E1 anti-SHH blocking antibody (Hybridoma Bank, University of Iowa) was used at 10 μg/ml. Forskolin (FK) and 1,9-dideoxyforskolin (ddFK; Sigma) were used at 50 μM. […] MEK-1 (U0126; Promega), EGFR (AG1478; Biosource) and AKT (SH6; Alexis corporation) inhibitors were used at 1, 10, and 40 μM, respectively, dissolved in DMSO. Drug treatments were for 48 h in 2.5% serum. BrdU (Sigma) was pulsed at 4 μg/ml for 2 h before fixation followed by immunodetection with anti-BrdU antibodies (BD Biosciences). The number of viable cells was assessed by Trypan blue exclusion (Promega).

[3] = system: GLI1, PTCH1, BMI1, FOXM1, MITFM expression; experiment: qPCR gene expression in melanoma cultures; type: cell-based, human; conditions: 4 h after inhibitor; all cultures
Method: Real-time quantitative PCR amplifications with different primers (Suppl. Materials) were carried out at 60° C. on an Opticon machine (MJ Research) using iQ™ SYBR Green supermix (Biorad) and values calculated using the standard curve method.
as §1

[4] = system: GLI1-transfected WM-115, SK-MEL-2 and SK-MEL-5; experiment: GLI1-transfection enhanced BrdU incorporation, treatment with inhibitors; type: cell-based, human; conditions: 48 h treatment
Method: as §1

[5] = system: frog GLI1, frog Gli2, human GLI3 proteins; experiment: localization of Myc-tagged GLI proteins in transfected COS7 cells; type: cell-based
Method: (§2) Cells were transfected (3 μg/p35 plate) with myc-tagged full-length CMV expression vectors for human GLI1 (Lee, J., Platt, K. A., Censullo, P. & Ruiz i Altaba, A. Gli1 is a target of Sonic hedgehog that induces ventral neural tube development. Development 124, 2537-2552 (1997)), HRAS-V12 (kindly provided by Dr. A. Pellicer, NYU) and LacZ with FUGENE (Roche). For selection, SK-MEL-2 and MeWo cells were transfected (4 μg/p60 plate) with PGK-neo and CMV-eGFP alone or in a 1/1/8 ratio with HRAS-12G, GLI3C′ΔClaI (Ruiz i Altaba 1999) or (frog) fGli2C′Δ (Ruiz i Altaba 1999), or in a 1/1/4/4 ratio with HRAS-12G/GLI3C′ΔClaI or HRAS-12G/fGli2C′Δ. After Geneticin (400 μg/ml, Gibco) selection for 20 days, colonies were stained with 0.5% crystal violet. Colony size was measured in duplicate dishes in three independent experiments. For subcellular localization, pCS2-Myc frog Gli2, […], human GLI3 and human GLI3C′ΔCla1 (Ruiz i Altaba, 1999) were transfected into COS-7 (ATCC) cells with our without HRAS (V12).

Frog Gli2 = experiment: localization of myc-tagged GLI proteins in transfected COS-7 cells; type: cell-based; conditions: Gli2+RAS*+inhibitor, 1 hr
Method: as §2

[6] = system: Human GLI3Rep (GLI3C′ΔCla1); experiment: as above; type: cell-based; conditions: GLI3Rep+RAS*+inhibitor, 1 hr
Method: as §2

Me-3, SK-Mel2 and WM-115 = experiment: BrdU incorporation after MEK1 or AKT inhibitors (Example 2); type: cell-based, human; conditions: 48 h
Method: WM-115, SK-MEL-2 and COS7 cell lines (ATCC) were grown according to the specifications of the provider. The primary Me-3 melanoma (Stecca, B. et al. Melanocyte proliferation and melanoma growth, recurrence and metastasis require sustained SONIC HEDGEHOG-GLI signaling. Submitted. (2006)) was grown in E-MEM with 10% FBS (Hyclone), 1 mM sodium pyruvate (GIBCO) and 1 ng/ml EGF (GIBCO). Proliferating human melanocytes from foreskin (Promocell) were grown in M2 media (Promocell). Melanomas from ±6 month-old Tyr→NRAS^Q61K; Ink4a^−/− mice on a light coat color Dct^−/− background^13 were collected from the skin and lymph nodes. Tumors were dissociated and grown in E-MEM with 10% FBS, 1 mM sodium pyruvate (GIBCO) and 1 ng/ml EGF (GIBCO). Mouse embryonic fibroblasts (MEFs) were prepared from E14.5 Swiss Webster mouse embryos and grown in DMEM with 10% FBS.
Forskolin (FK) and 1,9-dideoxyforskolin (ddFK; Sigma) were used at 50 μM. MEK-1 (U0126; Promega), and AKT (SH6; Alexis corporation) inhibitors were used at 1 and 40 μM, respectively, dissolved in DMSO. U0126 and SH6 were used for 1 h, 48 h post-transfection. Leptomycin B (LMB; Sigma) was used at 5 nM for 6 h, 48 h post-transfection. BrdU (Sigma) was pulsed at 4 μg/ml for 2 h before fixation followed by immunodetection with anti-BrdU antibodies (BD Biosciences). The number of viable cells was assessed by Trypan blue exclusion (Promega). […]

SK-Mel2 cells = experiment: Propidium iodide FACS analyses; type: cell-based, human; conditions: 24 h, compared to DMSO-treated cells
GLI1 and PTCH1 mRNA = experiment: qPCR of GLI1 and PTCH1 mRNA after MEK-1 or AKT inhibitors; type: cell-based, human; conditions: 4 h after treatment
Method: Real-time quantitative PCR amplifications with different primers were carried out at 60° C. on an Opticon machine (MJ Research) using iQTM SYBR Green supermix (Biorad) and values calculated using the standard curve method. Human primer sequences were 5'→3': […] NO: 5) and […] NO: 6); […] NO: 11) and […] NO: 41) and NRAS-R: […] NO: 44); […] NO: 33) and […] NO: 34). For mice: […] NO: 45) and […] NO: 46); Sufu-[…] NO: 47) and Sufu-[…] NO: 48); […] NO: 49) and […] NO: 50); Tyrosinase-[…] NO: 51) and Tyrosinase-[…] NO: 53) and […] NO: 54); […] NO: 55) and […] NO: 56). […] Promega), and AKT (SH6; […] […] Control siRNA: […] […] Proc. Natl. Acad. Sci. USA.

GLI1, GLI3, GLI3R = experiment: localization of transfected GLI proteins in SK-Mel2 cells; type: cell-based, human
Method: (§3) Forskolin (FK) and 1,9-dideoxyforskolin (ddFK; Sigma) were used at 50 μM. MEK-1 (U0126; Promega), and AKT (SH6; Alexis corporation) inhibitors were used at 1 and 40 μM, respectively, dissolved in DMSO. U0126 and SH6 were used for 1 h, 48 h post-transfection. Leptomycin B (LMB; Sigma) was used at 5 nM for 6 h, 48 h post-transfection. BrdU (Sigma) was pulsed at 4 μg/ml for 2 h before fixation followed by immunodetection with anti-BrdU antibodies (BD Biosciences). The number of viable cells was assessed by Trypan blue exclusion (Promega). […] (SEQ ID NO: 57) (target-validated from Ambion). […] SEQ ID NO: 58) (Sanchez, P. et al. Inhibition of prostate cancer proliferation by interference with SONIC HEDGEHOG-GLI1 signaling. Proc. Natl. Acad. Sci. USA. 101, 12561-12566 (2004)). siRNA transfections (0.2 μM) were performed with Oligofectamine (Invitrogen) for 48 h.
Cells were transfected (3 μg/p35 plate) with myc-tagged full-length CMV expression vectors with FUGENE (Roche). Transfections were at equimolar amounts unless otherwise specified with combinations of pCS2-Myc-tagged human GLI1, GLI3, GLI3R (GLI3C′ΔClaI), frog Gli2R (Gli2C′) (Ruiz i Altaba, A. Gli proteins encode context-dependent positive and negative functions: implications for development and disease. Development 126, 3205-3216 (1999), pCMV-HA-tagged GLI1 (ref. 20), HRAS^V12G (from A. Pellicer), NRAS^Q61K (Ackermann, J. et al. Metastasizing melanoma formation caused by expression of activated N-RasQ61K on an INK4a-deficient background. Cancer Res. 65, 4005-4011 (2005)), activated (myristoylated) myc-tagged AKT1 (Upstate), activated MEK1 (p45MAPKK^S222D; from J. Pouyssegur), Myc-tagged SUFUH (Kogerman, P. et al. Mammalian suppressor-of-fused modulates nuclear-cytoplasmic shuttling of Gli-1. Nat Cell Biol. 1, 312-319 (1999)), and pCMV-eGFP or pCMV-lacZ.

GLI1 = experiment: localization of transfected GLI1 in COS7 cells (Example 2); type: cell-based, monkey; conditions: inhibitors for 1 h
Method: as §3
Cells were transfected (3 μg/p35 plate) with myc-tagged full-length CMV expression vectors with FUGENE (Roche). […]

all forms of MEK = conditions: cited from earlier work
Glioma cell lines = conditions: cited from earlier work
[7] = system: Nude Harlan Sprague-Dawley Mice/lung (A-549, Calu-1) tumors; conditions: 50 mg/kg/d; lung (A-549, Calu-1) tumors, NIH3T3; cited from earlier work
[8] = system: Athymic mice/colon (DLD-1), H-Ras and K-Ras Fibroblast tumors; conditions: 10, 50 mg/kg/d; cited from earlier work

SMILES: O=C(Cc1ccncc1)N1CCC(=C2c3ccc(Cl)cc3CCc3cccnc32)CC1 [SCH44342]
- IC50 [1]: 1000 nM

SMILES: N#CC(=C(N)Sc1ccccc1N)C(C#N)=C(N)Sc1ccccc1N [U0126, 1,4-diamino-2,3-dicyano-1,4-bis[2-aminophenylthio]butadiene]
- BrdU incorporation [2]: decreased BrdU incorporation
- GLI1 and PTCH1 levels [3]: reduction of GLI1 and PTCH1 levels
- effect on GLI1-enhanced proliferation [4]: reversed
- localization of transfected GLI proteins without co-transfected RAS [5]: did not change the localization
- effect on RAS-enhanced nuclear accumulation of GLI proteins ([5]; treatment for 1 h, 24 h after transfection): reversed
- cells with cytoplasmic (c) localization (Frog Gli2): 30%
- cells with cytoplasmic (c) localization [6]: 1%
- BrdU incorporation (Me-3, SK-Mel2 and WM-115): decreased BrdU incorporation
- decrease in the number of dividing cells (S/G2/M) (SK-Mel2 cells): 30%
- GLI1 and PTCH1 mRNA levels (GLI1 and PTCH1 mRNA): rapid reduction of GLI1 and PTCH1 mRNA levels
- localization of the constitutively nuclear GLI3R (GLI1, GLI3, GLI3R): no effect
- localization of GLI1 (GLI1, GLI3, GLI3R; inhibitors for 1 h): increasing cytoplasmic localization of GLI1
- localization of GLI3 (GLI1, GLI3, GLI3R; inhibitors for 1 h): unaffected
- effect on oncogenic RAS-induced nuclear accumulation of GLI1 (GLI1): reversed
- higher affinity than PD 098059 (all forms of MEK): 44- to 357 fold

SMILES: COC(=O)[C@H](CCSC)NC(=O)c1ccc(NC[C@@H](N)CS)cc1-c1ccccc1 [FTI-277]
- IC50 (Glioma cell lines): 2000 to 15500 nM
- GROWTH INHIBITION [7]: 80%

SMILES: O=C(Cc1cc[n+]([O-])cc1)N1CCN(C2c3ccc(Cl)cc3CCc3cc(Br)cnc32)CC1 (stereo not shown) [SCH59228]
- GROWTH INHIBITION [8]: >90%
